Assays:
SARS-CoV [1] = assay: Antiviral activity against SARS-CoV isolate Frankfurt-1 infected in African green monkey Vero E6 cells incubated for 3 days; type: functional, organism-based; settings: Severe acute respiratory syndrome-related coronavirus, Frankfurt 1, Vero C1008, 72 h
[2] = Cytotoxicity against African green monkey Vero E6 cells by the MTS assay; type: cell-based, Vero C1008; settings: chlorocebus sabaeus
[3] = Cytotoxicity against human Huh-7 cells incubated for 1 hr by MTS assay; type: cell-based
SARS-CoV-2 [4] = assay: Antiviral activity against 2019-nCoV BetaCoV/Wuhan/WIV04/2019 infected in African green monkey VeroE6 cells assessed as reduction in viral yield preincubated with virus for 1 hr followed by cell infection and […] by qRT-PCR method; type: functional, organism-based; settings: Severe acute respiratory syndrome coronavirus 2, BetaCoV/Wuhan/WIV04/2019, Vero C1008
[5] = Cytotoxicity against African green monkey Vero E6 cells by the CCK8 assay; type: cell-based, Vero C1008; settings: chlorocebus sabaeus
[6] = Cytotoxicity against African green monkey Vero E6 cells incubated for 3 days by the MTS assay; type: cell-based, Vero C1008; settings: chlorocebus sabaeus, time 3 day
SARS-CoV [7] = assay: Antiviral activity against SARS-CoV isolate Frankfurt-1 infected in African green monkey Vero E6 cells incubated for 3 days by MTS assay; type: functional, organism-based; settings: Severe acute respiratory syndrome-related coronavirus, Frankfurt 1, Vero C1008, 72 h
Human coronavirus OC43 [8] = assay: Antiviral activity against wild type HCoV-OC43 infected in BHK-21 cells incubated for 72 hrs by RT-PCR method; type: functional, cell-based; settings: Betacoronavirus 1, BHK-21, 72 h
[9] = Selectivity ratio of CC50 for African green monkey Vero cells to EC50 for SARS-CoV FFM1 infected in African green monkey Vero cells; type: toxicity; settings: read-out: Ratio CC50/EC50
[10] = Selectivity ratio of CC50 for African green monkey Vero cells to EC50 for SARS-CoV FFM2 infected in African green monkey Vero cells; type: toxicity; settings: read-out: Ratio CC50/EC50
SARS-CoV [11] = assay: Antiviral activity against SARS-CoV FFM1 infected in African green monkey Vero cells assessed as reduction in virus induced cytopathic effect treated twice for 7 days; type: functional, organism-based; settings: Severe acute respiratory syndrome-related coronavirus, 168 h
SARS-CoV [12] = assay: Antiviral activity against SARS-CoV FFM2 infected in African green monkey Vero cells assessed as reduction in virus induced cytopathic effect treated twice for 7 days; type: functional, organism-based; settings: Severe acute respiratory syndrome-related coronavirus, 168 h
SARS-CoV-2 [13] = assay: Antiviral activity against SARS-CoV-2 infected in African green monkey Vero cells incubated for 48 hrs by RT-PCR method; type: functional, organism-based; settings: Severe acute respiratory syndrome coronavirus 2, Vero
SARS-CoV-2 [14] = assay: Antiviral actvity against SARS-CoV2 infected in human assessed as improvement rate of chest at 400 mg, po administered twice daily cotreated with 100 mg ritonavir and measured after 14 days by computed tomography; type: functional, Severe acute respiratory syndrome coronavirus 2; settings: time 14 day
[15] = Toxicity in human infected with SARS-CoV2 assessed as adverse events at 400 mg, po administered twice daily cotreated with 100 mg ritonavir and measured after 14 days; type: organism-based; settings: in vivo, 336 h, time 14 day
[16] = Selectivity ratio of CC50 for HAE cells to EC50 for SARS-CoV BJ-001 infected in African green monkey Vero E6 cells; type: toxicity, Vero C1008
SARS-CoV [17] = assay: Antiviral activity against SARS-CoV BJ-001 infected in African green monkey Vero E6 cells assessed as reduction in virus induced cytopathic effect by visual observation; type: functional, organism-based; settings: Severe acute respiratory syndrome-related coronavirus, BJ-001, Vero C1008
Human coronavirus OC43 [18] = assay: Antiviral activity against HCoV-OC43 infected in BALB/c mouse assessed as protection against virus-induced lethal infection at 15 mg/kg, ip administered for 14 days and measured up to 20 days; type: functional; settings: time day <=20
in vitro [19] = settings: rhesus monkey, LLC-MK2 cells
in vitro [20] = settings: rhesus monkey, LLC-MK2 cells; remark: listed apart in the source
in vitro [21] = settings: hamster, BHK-21 cells
[22] = Antiviral activity against HCoV-NL63 infected in Rhesus macaque LLC-MK2 cells incubated for 72 hrs by RT-PCR method; type: functional, cell-based; settings: Human coronavirus NL63, LLC-MK2, 72 h
[23] = Cytotoxicity against African green monkey Vero E6 cells incubated for 72 hrs by MTS assay; type: cell-based, Vero C1008; settings: chlorocebus sabaeus
SARS-CoV [24] = assay: Antiviral activity against SARS-CoV BJ-001 infected in African green monkey Vero E6 cells assessed as reduction in virus induced cytopathic effect incubated for 72 hrs by MTS/phenazine methosulfate method; type: functional, organism-based; settings: Severe acute respiratory syndrome-related coronavirus, BJ-001, Vero C1008, 72 h
in vitro [25] = settings: hamster, BHK-21 cells; remark: listed apart in the source

Compound: CCN(CC)CCCC(C)Nc1ccnc2cc(Cl)ccc12 (stereo not drawn) [CHLOROQUINE]
- EC50 (SARS-CoV [1]): 4.1 µM
- CC50 [2]: 261 µM
- CC50 at 1 h [3]: > 50 µM
- EC50 (SARS-CoV-2 [4]): 1.13 µM
- CC50 [5]: > 100 µM
- CC50 at 72 h [6]: > 128 µM
- IC50 (SARS-CoV [7]): 8.8 µM
- EC50 (Human coronavirus OC43 [8]): 0.33 µM

Compound: CC1(C)[C@@H](O[C@H]2O[C@H](C(=O)O)[C@@H](O)[C@H](O)[C@H]2O[C@@H]2O[C@H](C(=O)O)[C@@H](O)[C@H](O)[C@H]2O)CC[C@]2(C)[C@H]3C(=O)C=C4[C@@H]5C[C@@](C)(C(=O)O)CC[C@]5(C)CC[C@@]4(C)[C@]3(C)CC[C@@H]12 [GLYCYRRHIZIN]
- selectivity ratio [9]: 66
- selectivity ratio [10]: 66
- EC50 (SARS-CoV [11]): 365 µM
- EC50 (SARS-CoV [12]): 365 µM

Compound: CCN(CCO)CCCC(C)Nc1ccnc2cc(Cl)ccc12 (stereo not drawn) [HYDROXYCHLOROQUINE]
- IC50 (SARS-CoV-2 [13]): 0.72 µM

Compound: Cc1cccc(C)c1OCC(=O)N[C@@H](Cc1ccccc1)[C@@H](O)C[C@H](Cc1ccccc1)NC(=O)[C@H](C(C)C)N1CCCNC1=O [LOPINAVIR]
- Activity (SARS-CoV-2 [14]): 62.2%
- CC50 at 1 h [3]: > 37.6 µM
- Activity [15]: 55.6%
- CC50 at 72 h [6]: > 32 µM

Compound: O[C@H]1[C@H]2c3cc4c(cc3CN3CCC(=C[C@@H]1O)[C@H]23)OCO4 [LYCORINE]
- selectivity ratio [16]: 954
- IC50 (SARS-CoV [17]): 0.0157 µM
- Activity (Human coronavirus OC43 [18]): 83.3%
- selectivity ratio (in vitro [19]): 8.11
- CC50 at 72 h (in vitro [20]): 3.81 µM
- selectivity ratio (in vitro [21]): 29.1
- EC50 [22]: 0.47 µM
- CC50 at 72 h [23]: 14.9 µM
- IC50 (SARS-CoV [24]): 0.0157 µM
- CC50 at 72 h (in vitro [25]): 4.37 µM
- EC50 (Human coronavirus OC43 [8]): 0.15 µM
